Measured values as given in US20250236613A1, “SARM1 MODULATORS, PREPARATIONS, AND USES THEREOF” (SIRONAX LTD., priority 2021, published 2025).

molecular target: SARM1 (50-724) (Homo sapiens (Human), UniProt Q6SZW1); assay: SARM1 (50-724) enzymatic assay; format: biochemical; conditions: SARM1 inhibitory activity; 2 nM SARM1 (50-724), 200 μM NMN activator, 100 μM NAD+ substrate, 1 h, LC-MS/MS
Experimental: The enzymatic assay was performed in a 384-well plate using Dulbecco's PBS buffer as the reaction buffer. Purified SARM1 (50-724) with a final concentration of 2 nM was pre-incubated with the test compound at 1% DMSO final assay concentration for 15 min at room temperature. The reaction was initiated by adding the mixture of 200 μM NMN as activator and 100 μM NAD^+ as substrate. After 1 h of incubation at room temperature, the reaction was terminated with 10 times volume of 70% acetonitrile, then centrifuged at 3800 rpm for 10 min. The samples were analyzed using LC-MS/MS after diluted to the proper concentration by 10 mM ammonium acetate (pH 9.75).

Sequence of SARM1 (50-724) (Q6SZW1 50-724): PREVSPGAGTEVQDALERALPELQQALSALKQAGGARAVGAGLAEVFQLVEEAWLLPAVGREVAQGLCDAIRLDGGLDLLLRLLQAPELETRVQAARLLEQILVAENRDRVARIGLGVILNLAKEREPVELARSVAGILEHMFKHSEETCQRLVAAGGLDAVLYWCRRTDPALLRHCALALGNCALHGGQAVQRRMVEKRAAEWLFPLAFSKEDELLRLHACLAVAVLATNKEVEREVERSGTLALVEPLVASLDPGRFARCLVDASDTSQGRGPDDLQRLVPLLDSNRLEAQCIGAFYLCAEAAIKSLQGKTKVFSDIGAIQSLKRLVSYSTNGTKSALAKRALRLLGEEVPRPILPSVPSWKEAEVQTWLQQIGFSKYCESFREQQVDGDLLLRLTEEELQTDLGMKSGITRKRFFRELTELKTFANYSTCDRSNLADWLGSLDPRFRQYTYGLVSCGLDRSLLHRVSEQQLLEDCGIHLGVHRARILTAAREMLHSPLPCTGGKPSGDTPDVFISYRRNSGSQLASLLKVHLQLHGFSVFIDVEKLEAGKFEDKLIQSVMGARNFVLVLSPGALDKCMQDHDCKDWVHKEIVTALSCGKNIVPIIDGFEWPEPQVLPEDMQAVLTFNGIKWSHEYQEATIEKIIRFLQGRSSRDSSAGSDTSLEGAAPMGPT

IC50, 5 to 15 µM:
Cc1ccncc1-c1ccc(O)c(N)c1 [Compound 43, 2-amino-4-(4-methylpyridin-3-yl)phenol]
Cc1ccncc1-c1ccc2c(c1)NC(=O)NC2 [Compound 72, 7-(4-methylpyridin-3-yl)-3,4-dihydroquinazolin-2(1H)-one]
Cc1ccncc1-c1ccc2c(c1)OCC(=O)N2 [Compound 45, 7-(4-methylpyridin-3-yl)-2H-benzo[b][1,4]oxazin-3(4H)-one]
Cc1ccncc1-c1cncc(O)c1 [Compound 56, 4′-methyl-[3,3′-bipyridin]-5-ol]
CC(=O)c1ccc(-c2cnccc2C)cc1O [Compound 38, 1-(2-hydroxy-4-(4-methylpyridin-3-yl)phenyl)ethan-1-one]
Cc1ccncc1-c1cc(Cl)c2[nH]ncc2c1 [Compound 58, 7-chloro-5-(4-methylpyridin-3-yl)-1H-indazole]

IC50, 15 to 30 µM:
Cc1ccncc1-c1ccc2c(c1)C(=O)NCC2 [Compound 18, 7-(4-methylpyridin-3-yl)-3,4-dihydroisoquinolin-1(2H)-one]
Oc1cccc(-c2cccnc2)c1 [Compound 10, 3-(pyridin-3-yl)phenol]

IC50, > 30 µM:
Cc1ccncc1-c1cc2cn[nH]c2cn1 [Compound 49, 5-(4-methylpyridin-3-yl)-1H-pyrazolo[3,4-c]pyridine]

IC50, < 5 µM:
O=c1[nH]c2ccc(-c3cncc(Nc4ccccc4)c3)cc2o1 [Compound 87, 6-(5-(phenylamino)pyridin-3-yl)benzo[d]oxazol-2(3H)-one]
Cc1ccc(-c2cnccc2C)cc1O [Compound 32, 2-methyl-5-(4-methylpyridin-3-yl)phenol]
O=c1[nH]c2ccc(-c3cccnc3)cc2o1 [Compound 84, 6-(pyridin-3-yl)benzo[d]oxazol-2(3H)-one]
Cc1ccncc1-c1ccc(N)c(O)c1 [Compound 42, 2-amino-5-(4-methylpyridin-3-yl)phenol]
CN(c1ccccc1)c1cncc(-c2ccc3[nH]c(=O)oc3c2)c1 [Compound 109, 6-(5-(methyl(phenyl)amino)pyridin-3-yl)benzo[d]oxazol-2(3H)-one]
Cc1ccncc1-c1ccc(O)c(C#N)c1 [Compound 6, 2-hydroxy-5-(4-methylpyridin-3-yl)benzonitrile]
Cc1ccncc1-c1cccc(O)c1F [Compound 13, 2-fluoro-3-(4-methylpyridin-3-yl)phenol]
Cc1ccncc1-c1cc(O)cc(Br)c1 [Compound 16, 3-bromo-5-(4-methylpyridin-3-yl)phenol]
Cc1ccncc1-c1ccc2[nH]nnc2c1 [Compound 36, 5-(4-methylpyridin-3-yl)-1H-benzol[d][1,2,3]triazole]
Cc1ccncc1-c1ccc(O)c(Br)c1 [Compound 15, 2-bromo-4-(4-methylpyridin-3-yl)phenol]
Cc1ccncc1-c1ccc(CN)cc1 [Compound 8, (4-(4-methylpyridin-3-yl)phenyl)methanamine]
CCc1cc(-c2cnccc2C)ccc1O [Compound 29, 2-ethyl-4-(4-methylpyridin-3-yl)phenol]
CCc1ccncc1-c1ccc2[nH]c(=O)oc2c1 [Compound 83, 6-(4-ethylpyridin-3-yl)benzo[d]oxazol-2(3H)-one]
Cc1ccncc1-c1cc(O)cc(C(F)(F)F)c1 [Compound 63, 3-(4-methylpyridin-3-yl)-5-(trifluoromethyl)phenol]
O=c1[nH]c2ccc(-c3cncc(Nc4cccc(F)c4)c3)cc2o1 [Compound 101, 6-(5-((3-fluorophenyl)amino)pyridin-3-yl)benzo[d]oxazol-2(3H)-one]
Cc1ccncc1-c1ccc2c(c1)COC(=O)N2 [Compound 59, 6-(4-methylpyridin-3-yl)-1,4-dihydro-2H-benzo[d][1,3]oxazin-2-one]
